Laboratory results: patent US5696140A, “N-cyano-N'-pyridylguanidines as serotonin antagonists” (Leo Pharmaceutical Products Ltd., priority 1992, dated 1997)

Columns and labels:
Yoshida sarcoma cells [1] = assay: survival time of Yoshida tumour-bearing rats (LEW/Mol inbred female rats, oral); format: in vivo, rat; settings: untreated 7.5 days
Procedure: The prolongation of survival time of tumour-bearing rats was studied in LEW/Mol inbred female rats inoculated with Yoshida sarcoma cells (identical to the cells described above) in a number of 2×10^7 cells. Tumour-bearing rats were dosed orally once daily from day 3 after the transfer of tumour cells and until death or until the body-weights had increased by 10% as a consequence of tumour proliferation. The time for death of 50% of the animals was calculated by linear regression analysis.

Yoshida sarcoma cells [2] = assay: inhibition of Yoshida sarcoma cell proliferation in vitro ([^3 H]thymidine incorporation, 24 h); format: cell-based; settings: Rattus norvegicus, read-out: Inhibition of tumour cell proliferation IC50
Procedure: (§1) The inhibition of tumour cell proliferation was studied using Yoshida sarcoma cells, originally derived from rat hepatic tumours induced by the carcinogen o-aminoazotoluene. The cells were cultured in vitro for 24 hours in the presence of the compound under investigation. DNA synthesis was measured by incorporation of [^3 H]thymidine, and the median inhibitory concentrations (IC50) of the compounds were calculated. The cytotoxicity of the compounds in normal lymphocytes was assessed by the dye exclusion method and expressed as the concentrations resulting in 50% viability (VC50).

[3] = cytotoxicity in normal lymphocytes, dye exclusion method; format: cell-based; settings: concentration resulting in 50% viability, read-out: Effect on viability of normal cells VC50
Procedure: as §1

[4] = tested on: human small cell lung carcinoma (NYH); assay: inhibition of tumour cell proliferation in vitro, NYH; format: cell-based
[5] = tested on: human breast cancer (MCF-7); assay: inhibition of tumour cell proliferation in vitro, MCF-7; format: cell-based; settings: MCF7
[6] = tested on: human small cell lung carcinoma (NYH); assay: therapeutic antitumour effect in nude mice carrying a human small cell lung carcinoma (NYH); format: in vivo, human tumour in nude mice
Procedure: In addition the antitumour effect of the compounds of the present invention was determined in nude mice carrying a human small cell lung carcinoma (NYH).
Nude mice were inoculated subcutaneously with a 0.2 ml NYH cell suspension (5×10^7 cells/ml). Two weeks after inoculum animals were divided in treatment and control groups. All mice were dosed p.o. once daily according to group from day 14 to 28.

Sc1ncnc2nc[nH]c12 [6-Mercaptopurine, reference compound]
Time to 50% of animals dead of cancer (Yoshida sarcoma cells [1]; 10 mg/kg p.o. once daily): 12.2 days

O=P1(N(CCCl)CCCl)NCCCO1 (stereo not drawn) [Cyclophosphamide, reference compound]
Time to 50% of animals dead of cancer (Yoshida sarcoma cells [1]; 0.3 mg/kg p.o. once daily): 19.1 days

N#CN=C(NCCCOc1ccccc1)Nc1ccncc1 [Example No. 5, N-Cyano-N'-(3-phenoxypropyl)-N"-4-pyridylquanidine]
Time to 50% of animals dead of cancer (Yoshida sarcoma cells [1]; 10 mg/kg p.o. once daily): 12.0 days | Time to 50% of animals dead of cancer (Yoshida sarcoma cells [1]; 20 mg/kg p.o. once daily): 15.5 days | Time to 50% of animals dead of cancer (Yoshida sarcoma cells [1]; 50 mg/kg p.o. once daily): a (No rats had died on day 14. Calculation of 50% dead not possible.) | Time to 50% of animals dead of cancer (Yoshida sarcoma cells [1]; 100 mg/kg p.o. once daily): a (No rats had died on day 14. Calculation of 50% dead not possible.) | IC50 (Yoshida sarcoma cells [2]): 3300 nM | CC50 [3]: > 100000 nM

N#CN=C(NCCCCOc1ccccc1)Nc1ccncc1 [Example No. 14, N-Cyano-N'-(4-phenoxybutyl)-N"-4-pyridylquanidine]
Time to 50% of animals dead of cancer (Yoshida sarcoma cells [1]; 20 mg/kg p.o. once daily): 10.8 days | IC50 (Yoshida sarcoma cells [2]): 170 nM | CC50 [3]: 100000 nM

N#CN=C(NCCCCCOc1ccccc1)Nc1ccncc1 [Example No. 18, N-Cyano-N'-(5-phenoxypentyl)-N"-4-pyridylquanidine]
Time to 50% of animals dead of cancer (Yoshida sarcoma cells [1]; 20 mg/kg p.o. once daily): 11.0 days | IC50 (Yoshida sarcoma cells [2]): 750 nM | CC50 [3]: > 100000 nM

N#CNC(=Nc1ccncc1)NCCCCCCCOc1ccccc1 [Example No. 33, N-Cyano-N'-(7-phenoxyheptyl)-N"-4-pyridylguanidine]
IC50 [4]: 0.58 nM | IC50 [5]: 6.2 nM

N#CN=C(NCCCCCCOc1ccc(Cl)cc1)Nc1ccncc1 [Example No. 43, N-(6-p-Chlorophenoxyhexyl)-N'-cyano-N"-4-pyridylquanidine]
IC50 [4]: 1.9 nM | tumour areas (range) ([6]; 25 mg/kg p.o. once daily day 14 to 28, day 11 (before dosing)): 12-36 mm^2 | tumour areas (range) ([6]; 25 mg/kg p.o. once daily day 14 to 28, day 14): 23-58 mm^2 | tumour areas (range) ([6]; 25 mg/kg p.o. once daily day 14 to 28, day 18, p < 0.05 vs untreated or vehicle): 12-59 mm^2 | tumour areas (range) ([6]; 25 mg/kg p.o. once daily day 14 to 28, day 21, p < 0.05 vs untreated or vehicle): 11-18 mm^2 | tumour areas (range) ([6]; 25 mg/kg p.o. once daily day 14 to 28, day 25, p < 0.05 vs untreated or vehicle): 4-14 mm^2 | tumour areas (range) ([6]; 25 mg/kg p.o. once daily day 14 to 28, day 28, p < 0.05 vs untreated or vehicle): 0--0 mm^2 | Number of tumours ([6]; 25 mg/kg p.o., day 11 (before dosing)): 6 | Number of tumours ([6]; 25 mg/kg p.o., day 14): 8 | Number of tumours ([6]; 25 mg/kg p.o., day 18): 8 | Number of tumours ([6]; 25 mg/kg p.o., day 21): 5 | Number of tumours ([6]; 25 mg/kg p.o., day 25): 3 | Number of tumours ([6]; 25 mg/kg p.o., day 28): 0 | tumour areas (range) ([6]; 50 mg/kg p.o. once daily day 14 to 28, day 11 (before dosing)): 17-64 mm^2 | tumour areas (range) ([6]; 50 mg/kg p.o. once daily day 14 to 28, day 14): 16-131 mm^2 | tumour areas (range) ([6]; 50 mg/kg p.o. once daily day 14 to 28, day 18, p < 0.05 vs untreated or vehicle): 8-109 mm^2 | tumour areas (range) ([6]; 50 mg/kg p.o. once daily day 14 to 28, day 21, p < 0.05 vs untreated or vehicle): 6-40 mm^2 | tumour areas (range) ([6]; 50 mg/kg p.o. once daily day 14 to 28, day 25, p < 0.05 vs untreated or vehicle): 3-27 mm^2 | tumour areas (range) ([6]; 50 mg/kg p.o. once daily day 14 to 28, day 28, p < 0.05 vs untreated or vehicle): 0--0 mm^2 | Number of tumours ([6]; 50 mg/kg p.o., day 11 (before dosing)): 6 | Number of tumours ([6]; 50 mg/kg p.o., day 14): 10 | Number of tumours ([6]; 50 mg/kg p.o., day 18): 10 | Number of tumours ([6]; 50 mg/kg p.o., day 21): 5 | Number of tumours ([6]; 50 mg/kg p.o., day 25): 5 | Number of tumours ([6]; 50 mg/kg p.o., day 28): 0 | IC50 [5]: 21 nM

N#CNC(=NCCCCCCOc1cc(Cl)c(Cl)cc1Cl)Nc1ccncc1 [Example No. 52, N-Cyano-N'-4-pyridyl-N"-(6-(2,4,5-trichlorophenoxy)hexyl)guanidine]
IC50 [4]: 1.4 nM | IC50 [5]: 4.3 nM

COc1ccccc1OCCCCCCNC(=NC#N)Nc1ccncc1 [Example No. 53, N-Cyano-N'-(6-o-methoxyphenoxyhexyl)-N"-4-pyridylquanidine]
IC50 [4]: 0.52 nM | IC50 [5]: 0.74 nM

N#CN=C(NCCCCCCOc1ccccc1Cl)Nc1ccncc1 [Example No. 54, N-(6-o-Chlorophenoxyhexyl)-N'-cyano-N"-4-pyridylquanidine]
IC50 [4]: 0.59 nM | IC50 [5]: 1.4 nM
